Results on 1 molecule are retold here after patent US10675286B2, “Heterocyclic compounds and uses thereof” (Infinity Pharmaceuticals, Inc., priority 2014, dated 2020).

Where two headings read alike, the source gives them in different places.

One series has as its system MC38 tumor cells. Briefly: MC38 colon cancer model. It counts as in vivo, mouse.
Series [1] is described as follows: In vitro toxicology studies.
The nature of series [2]: Pharmacokinetics in rodent and non-rodent animal species (ADME characteristics, Table 25). An excerpt:
These properties indicate the compound's suitability for in vivo administration.

A short description of series [3]: Stability in simulated gastric fluid. It counts as physicochemical. Particulars: 38° simulated gastric fluid. An excerpt:
The phyiscochemical properties of Compound BB are drug-like, and suitable for use of the compound as a drug.

The test system of the next series is Human hep. In words: Human hep viability (ADME characteristics, Table 25). The format is cell-based.
The next series deals with CT26 colon carcinoma. In words: CT26 allograft colon cancer model. It counts as in vivo, mouse. An excerpt:
CT26 is an N-nitroso-N-methylurethane-(NNMU) induced, undifferentiated mouse colon carcinoma cell line. It is cloned to generate the cell line designated CT26.WT (ATCC CRL-2638). The syngeneic CT26 colon cancer model is established by subcutaneous implantation of CT26 cells into BALB/c mice. This model has been extensively used to study the anti-tumor activity of immunotherapies (Yu et al., Clinical Cancer Research, 2010; Daraiswamy et al., Cancer Research, 2013). […] In some embodiments, a compound provided herein can be administered alone or in combination with an anti-PD-L1.
CT26 is an N-nitroso-N-methylurethane-(NNMU) induced, undifferentiated colon carcinoma cell line. It was cloned to generate the cell line designated CT26.WT (ATCC catalog number CRL-2638). 5-6 week old female, Balb/c mice (Jackson Labs) were implanted subcutaneously with 5×10^5 CT26 cells in 200 μl PBS. CT26 cells were cultured in DMEM supplemented with 10% FBS. Dosing commenced when tumors reached an average volume of […]. Administration of the compounds was performed according to the following Table:
Isotype control (Ultra-LEAF purified rat IgG2b, k isotype control, clone RTK4530, Lot B180477, Biolegend, Cat #70640)
Anti-PD-L1 antibody (Ultra-LEAF purified anti-mouse CD274-B7H1, PD-L1-, clone 10F9G2, Lot B178331, Biolegend, Cat #124318) […]
Body weights and tumor volumes were measured three times per week.

The test system of series [4] is CXCL12 stimulated pAKT S473 in T cells and monocytes. In words: Ex vivo whole blood CXCL12 stimulation of phospho-AKT, LLC-bearing mice. The format is in vivo, mouse. Particulars: LLC-bearing mice, 3, 7.5 or 15 mg/kg QD PO 12 days, 2 h post dose. How it is done:
C57 BL/6 Albino mice were implanted with 1×10^6 cells in a SC injection in the hind flank. The cell implant material was generated from brei that was passaged from mouse to mouse. Treatment started when tumors were between 160-180 mm^3. Mice were dosed for 12 days, QD, PO with vehicle, 15, 7.5 or 3 mg/kg. On day 12 mice were dosed and terminal blood was collected 2 h post dose by cardiac stick collection. Blood was placed in EDTA K2 collection tube and stored at room temp for PD analysis.
Blood from each animal was aliquotted into 2 plates and warmed to 37° C. degrees. PBS was added to one plate as an unstimulated control. Murine CXCL12/SDF-1 was added to the second plate to a final concentration of 800 ng/mL and plate was returned to the 37° C. degree block. After 2 minutes of incubation, blood was lysed and fixed using paraformaldehyde. Samples were washed and frozen until flow cytometric analysis. T cells were gated using an antibody to CD3 and monocytes were gated as LY6G^− LY6C^high. Intracellular pAKT S473 was measured and percent positive was used for graphing.

In series [5] the test system is Myeloid Derived Suppressor Cell. Briefly: Myeloid Derived Suppressor Cell differentiation assay. It counts as cell-based.
In series [6] the test system is CXCL12-induced T cell migration. In words: CXCL12-induced T-cell migration in CLL PBMCs (transwell). It counts as cell-based. Particulars: Homo sapiens. How it is done:
Specifically, the material used were media (RPMI+0.5% Fetal Bovine Serum+Pen/Strep), total CLL PBMCs (AllCells), CoStar 24-transwell plates ([…]) #3421, BD Cytofix Fixation Buffer (#554655), BD FBS Stain Buffer (BD Biosciences, 554656), Deep 96-well plate (Axygen, P-2ML-SQ-C), rhCXCL12 (R&D, 350-NS-050), CD-19 APC Cy7 (BD #348794 1:20), CD3-PerCPCy5.5 (BD #560835, 1:20), CD5-PE (Biolegend #300608, 1:5), CD4-FITC (BD #561842, 1:20), and CD8-APC (BD #561953, 1:20).
Total CLL human PBMCs were preincubated with Compound AA or BB in media for 45 minutes at 37° C. […] After the 45 minutes of compound preincubation, 500-750K CLL PBMCs were placed in the upper chamber of the transwell insert in a total volume of 100 uL. The cells were allowed to migrate for 2-4 hours at 37° C. The inserts were removed, and 550 uL media from lower chamber were transferred into a deep 96-well plate. The cells were spun at 1280 rpm for 5 minutes and flick media. The cells were resuspended in 400 uL BD Cytofixation buffer and incubated at RT for 10 minutes. 1 mL BD FBS stain buffer was added. The cells were spun at 1280 rpm and fixation buffer was disposed. The cells were resuspended in 100 uL of CD3,4,8,5,19 antibody cocktail made up in BD FBS stain buffer, which was then incubated at room temperature in the dark for 30-60 minutes. 1 mL BD FBS stain buffer was added to each well, which was then spun and flicked. The cells were resuspended in 150 uL FBS stain buffer and transferred to FACS tubes already containing 150 uL FBS stain buffer. Each sample was read on the FACS for 25 seconds. Gate on CD3, 4, 8 and CD19/5 subpopulations individually and calculate average migration index from triplicate samples. See e.g., Borge et al., haematologica 2010, 95(5): 768-775; de Rooij et al., Blood 2012, 119: 2590-2594.

Description for MC38 tumor cells: In this model, a syngeneic colon cancer cell line is run subcutaneously. The experimental setup was as follows.
The cell injection volume was 0.05 ml per mouse. When tumors reached an average size of 80-100 mm^3, a pair match was made and treatment began. The tumor was measured by caliper biweekly.
The dosing volume was 5 mL/kg.
For all animals, blood was collected by terminal cardiac puncture under isoflurane anesthesia. The blood was processed for plasma. In addition, tumor samples were collected.
At study end, tumors were isolated, fixed in 10% neutral buffered formalin and embedded in paraffin for histologic analysis. […] T-cells within the tumor sections were identified utilizing a CD3-specific antibody via automated immunohistochemistry equipment (Ventana). Once stained, slides were digitalized via Aperio slide scanning equipment. Next, stained tumor sections were quantified via Definians software to assess the percentage of CD3 positive cells within each tumor.

For `C[C@H](NC(=O)c1c(N)nn2cccnc12)c1cc2cccc(C#Cc3cnn(C)c3)c2c(=O)n1-c1ccccc1` [Compound BB], in the series on MC38 tumor cells (MC38, monotherapy), the “Tumor growth (FIG. 29A)” value was “significantly inhibited tumor growth”. The “Intratumoral CD3+ T cells (FIG. 30)” value with MC38 tumor cells (MC38 tumors, vs vehicle) is listed as “significantly more intratumoral CD3+ T cells”. In addition, in series [1], the In vitro toxicology result is reported as “expected to have very low toxicity”. Moreover, in series [2], the “Clearance and half-life in vivo” value is “low clearance and a long half-life in vivo”. For the same molecule, the “Stability in simulated gastric fluid” value in series [3] is greater than 4 h. In the series with Human hep, this molecule registered an IC50 of 10000 to 25000 nM. In the series with CT26 colon carcinoma (CT26 model, 5-9 day time frame), the “MDSC expansion after cyclophosphamide treatment (FIG. 28)” value was “decreased”. Further, the “Monocytic iMCs (flow cytometry, FIG. 38B)” value in the series with CT26 colon carcinoma (CT26 subcutaneous tumors) is on record as “monocytic iMCs were decreased”. In series [4], the “Ex vivo whole blood CXCL12 stimulation of phospho-AKT in T cells (FIG. 58)” value is “inhibits the ex vivo whole blood stimulation of phosphor-AKT in T cells”. Moreover, in series [4], the “Ex vivo whole blood CXCL12 stimulation of phospho-AKT in monocytes (FIG. 59)” value is given as “inhibits the ex vivo whole blood stimulation of phosphor-AKT in monocytes”. For the same molecule, the ARG1 result in [5] is listed as “suppresses”. For the same molecule, the VEGF entry in series [5] was “suppresses”. Further, the EC50 in [6] (T-cell subset CD3+, read-out: EC50 (nM), CXCL12 induced T-cell migration) was 17 ± 17 nM; in series [6] (T-cell subset CD4+, read-out: EC50 (nM), CXCL12 induced T-cell migration), 20 ± 21 nM; in [6] (T-cell subset CD8+, read-out: EC50 (nM), CXCL12 induced T-cell migration), 13 ± 15 nM; in series [6] (read-out: EC50, inhibition of CXCL12-induced CD3+ T cell migration (FIG. 8)) it was 10 nM.
